Counter-ions that a name gives are not always drawn.
Legend:
Abl (T315I) = biological target: T1, Abl (T315I) (Homo sapiens, UniProt P00519, T315I); test: Abl (T315I) Kinase Assay (KinaseGlo luminescent detection of residual ATP); format: biochemical; details: Abl (T315I) IC50 (nM), Abl (T315I) (Upstate, 17 ng/well), Abltide 100 uM, ATP 500 nM, 60 minutes at 37° C.
T1 construct: purchased Upstate
Protocol: The assay was performed similarly to the Abl kinase assay. Abl (T315I) (Upstate, 17 ng/well); Abltide substrate (100 uM) and ATP (500 nM) comprised the reaction mixture. Compound was similarly diluted, and the reaction plate was incubated for 60 minutes at 37° C.

Abl kinase = Abl kinase (Homo sapiens, UniProt P00519); test: biochemical; details: Abl IC50 (nM), Abl kinase (Invitrogen, 20 ng/well), Abltide 100 μM, ATP 500 nM, 37° C. for 60 minutes, top concentration 10 uM

Structure (SMILES) | IC50 (Abl (T315I)) [nM] | IC50 (Abl kinase) [nM]
O=S(=O)(c1ccc(Nc2ncc(/C=C/c3cccc4[nH]ncc34)cn2)cc1)C1CCNCC1 [5-((E)-2-(1H-indazol-4-ylsulfonyl)phenyl)pyrimidin-yl)vinyl)-N-(4-(piperidin-4-2-amine trifluoroacetic acid salt] | 29 | 1.5
O=S(=O)(c1ccc(Nc2ncc(/C=C/c3cccc4[nH]ccc34)cn2)cc1)C1CCNCC1 [5-((E)-2-(1H-indol-4-yl)vinyl)-N-(4-(piperidin-4-2-amine] | 154 | 6.3
Nc1nc2cc(/C=C/c3cnc(Nc4ccc(S(=O)(=O)C5CCNCC5)cc4)nc3)ccc2s1 [5-((E)-2-(2-(4-(piperidin-4-ylsulfonyl)phenylamino)pyrimidin-5-yl)vinyl)benzo[d]thiazol-2-amine Hydrochloride] | 416 | 101
O=S(=O)(c1ccc(Nc2ncc(/C=C/c3cc(C(F)(F)F)cc4[nH]nnc34)cn2)cc1)C1CCNCC1 [5-((E)-2-(6-(trifluoromethyl)-1H-benzo[d][1,2,3]triazol-4-yl)vinyl)-N-(4-(piperidin-4-ylsulfonyl)phenyl)pyrimidin-2-amine] | 70 | 130
O=S(=O)(c1ccc(Nc2ncc(/C=C/c3cc(C(F)(F)F)cc4[nH]cnc34)cn2)cc1)C1CCNCC1 [5-((E)-2-(6-(trifluoromethyl)-1H-benzo[d]imidazol-4-yl)vinyl)-N-(4-(piperidin-4-ylsulfonyl)phenyl)pyrimidin-2-amine.] | 666 | 245
Nc1cccc(/C=C/c2cnc(Nc3ccc(S(=O)(=O)C4CCNCC4)cc3)nc2)n1 [5-((E)-2-(6-aminopyridin-2-yl)vinyl)-N-(4-(piperidin-4-ylsulfonyl)phenyl)pyrimidin-2-amine Hydrochloride] | 1210 | 56
O=S(=O)(c1ccc(Nc2ncc(/C=C/c3cc(F)cc4[nH]nnc34)cn2)cc1)C1CCNCC1 [5-((E)-2-(6-fluoro-1H-benzo[d][1,2,3]triazol-4-yl)vinyl)-N-(4-(piperidin-4-ylsulfonyl)phenyl)pyrimidin-2-amine trifluoroacetate] | 12 | 7.2
O=S(=O)(c1ccc(Nc2ncc(/C=C/c3ccc(Cl)c4[nH]ccc34)cn2)cc1)C1CCNCC1 [5-((E)-2-(7-chloro-1H-indol-4-yl)vinyl)-N-(4-(piperidin-ylsulfonyl)phenyl)pyrimidin-2-amine Hydrochloride] | 156 | 15
O=S(=O)(c1ccc(Nc2ncc(/C=C/c3ccc(F)c4[nH]ccc34)cn2)cc1)C1CCNCC1 [5-((E)-2-(7-fluoro-1H-indol-4-yl)vinyl)-N-(4-(piperidin-ylsulfonyl)phenyl)pyrimidin-2-amine Hydrochloride] | 149 | 8
Cc1ccc(/C=C/c2cnc(Nc3ccc(S(=O)(=O)C4CCNCC4)cc3)nc2)c2cc[nH]c12 [5-((E)-2-(7-methyl-1H-indol-4-yl)vinyl)-N-(4-(piperidin-ylsulfonyl)phenyl)pyrimidin-2-amine Hydrochloride] | 167 | 58
O=S(=O)(c1ccc(Nc2ncc(/C=C/c3cccc(-c4ncc[nH]4)c3)cn2)cc1)C1CCNCC1 [5-((E)-3-(1H-imidazol-2-yl)styryl))-N-(4-(piperidin-4-ylsulfonyl)phenyl)pyrimidin-2-amine] | 2720 | 159
O=S(=O)(c1ccc(Nc2ncc(/C=C/c3ccc(-c4nnn[nH]4)cc3)cn2)cc1)C1CCNCC1 [5-((E)-4-(1H-tetrazol-5-ylsulfonyl)phenyl)pyrimidin-yl)styryl)-N-(4-(piperidin-4-2-amine hydrochloride] | 4180 | 3260
O=S(=O)(c1ccc(Nc2ncc(/C=C/c3ccc(-c4ncc[nH]4)cc3)cn2)cc1)C1CCNCC1 [5-((E)-(4-(1H-imidazol-2-yl)styryl))-N-(4-(piperidin-4-ylsulfonyl)phenyl)pyrimidin-2-amine hydrochloride] | 1290 | 374
O=S(=O)(c1ccc(Nc2ncc(/C=C/c3cccc4[nH]ncc34)cn2)cc1N1CCNCC1)N1CCNCC1 [5-[(E)-2-(1H-indazol-4-yl)vinyl]-N-[3-piperazin-1-yl-4-piperazin-1-ylsulfonyl)phenyl]pyrimidin-2-amine] | 336 | 20
C(=C\c1cccc2[nH]ncc12)/c1cnc(Nc2ccc(OC3CCNCC3)cc2)nc1 [5-[(E)-2-(1H-indazol-4-yl)vinyl]-N-[4-(piperidin-4-yloxy)phenyl]pyrimidin-2-amine trifluoroacetic acid salt] | 169 | 7.9
O=S(=O)(CCCN1CCCC1)c1ccc(Nc2ncc(/C=C/c3cccc4[nH]ncc34)cn2)cc1 [5-[(E)-2-(1H-indazol-4-yl)vinyl]-N-{4-[(3-pyrrolidin-1-ylpropyl)sulfonyl]phenyl}pyrimidin-2-amine] | 124 | 3.9

Structure (SMILES) | IC50 (Abl (T315I)) [nM] | IC50 (Abl kinase) [nM]
O=S(=O)(CCCN1CCCC1)c1ccc(Nc2ncc(/C=C/c3cccc4[nH]ccc34)cn2)cc1 [5-[(E)-2-(1H-indol-4-pyrrolidin-1-ylpropyl)sulfonyl]phenyl}pyrimidin-2-amine] | 386 | 13
O=S(=O)(c1ccc(Nc2ncc(/C=C/c3cccc4[nH]ccc34)cn2)cc1N1CCNCC1)N1CCNCC1 [5-[(E)-2-(1H-indol-4-yl)vinyl]-N-[3-piperazin-1-yl-4-(piperazin-1-ylsulfonyl)phenyl]pyrimidin-2-amine trifluoroacetic acid salt] | 885 | 84
C(=C\c1cccc2[nH]ccc12)/c1cnc(Nc2ccc(OC3CCNCC3)cc2)nc1 [5-[(E)-2-(1H-indol-4-yl)vinyl]-N-[4-(piperidin-4-yloxy)phenyl]pyrimidin-2-amine trifluoroacetic acid salt] | 820 | 21
O=S(=O)(c1cccc(Nc2ncc(/C=C/c3cccc4[nH]ccc34)cn2)c1)N1CCNCC1 [5-[(E)-2-(1H-indol-4-yl)vinyl]-N-{3-(piperazin-1-ylsulfonyl)phenyl]pyrimidin-2-amine] | ~10000 | 244
CN1CCN(S(=O)(=O)c2cccc(Nc3ncc(/C=C/c4cccc5[nH]ccc45)cn3)c2)CC1 [5-[(E)-2-(1H-indol-4-yl)vinyl]-N-{3-[(4-methylpiperazin-1-yl)sulfonyl]phenyl}pyrimidin-2-amine] | ~10000 | 784
O=S(=O)(c1ccc(Nc2ncc(/C=C/c3cccc4[nH]ccc34)cn2)cc1)N1CCNCC1 [5-[(E)-2-(1H-indol-4-yl)vinyl]-N-{4-(piperazin-1-ylsulfonyl)phenyl]pyrimidin-2-amine] | 450 | 22
CN1CCN(C(=O)c2ccc(Nc3ncc(/C=C/c4cccc5[nH]ccc45)cn3)cc2)CC1 [5-[(E)-2-(1H-indol-4-yl)vinyl]-N-{4-[(4-methylpiperazin-1-yl)carbonyl]phenyl}pyrimidin-2-amine] | 852 | 41
Nc1nc2ccc(/C=C/c3cnc(Nc4ccc([S+]([O-])CCN5CCOCC5)cc4)nc3)cc2s1 (stereo not shown) [6-(2-{2-[4-(2-Morpholin-4-yl-ethanesulfinyl)-phenylamino]-pyrimidin-5-yl}-vinyl)-benzothiazol-2-ylamine] | 283 | 272
Nc1nc2ccc(/C=C/c3cnc(Nc4ccc(SCCN5CCOCC5)cc4)nc3)cc2s1 [6-(2-{2-[4-(2-Morpholin-4-yl-ethylsulfanyl)-phenylamino]-pyrimidin-5-yl}-vinyl)-benzothiazol-2-ylamine] | 1200 | 630
Nc1nc2ccc(/C=C/c3cnc(Nc4ccc(S(=O)(=O)C5CCCNCC5)cc4)nc3)cc2s1 (stereo not shown) [6-(2-{2-[4-(Azepane-4-sulfonyl)-phenylamino]-pyrimidin-5-yl}-vinyl)-benzothiazol-2-ylamine] | 14 | 27
Nc1nc2ccc(/C=C/c3cnc(Nc4ccc(S(=O)(=O)CC5CCNCC5)cc4)nc3)cc2s1 [6-(2-{2-[4-(Piperidin-4-ylmethanesulfonyl)-phenylamino]-pyrimidin-5-yl}-vinyl)-benzothiazol-2-ylamine] | 76 | 169
COCCN1CCN(S(=O)(=O)c2ccc(Nc3ncc(/C=C/c4ccc5nc(N)sc5c4)cn3)cc2)CC1 [6-[2-(2-{4-[4-(2-Methoxy-ethyl)-piperazine-1-sulfonyl]-phenylamino}-pyrimidin-5-yl)-vinyl]-benzothiazol-2-ylamine] | 380 | 1150
Nc1nc2ccc(/C=C/c3cnc(Nc4ccc(S(=O)(=O)N5CCNCC5)c(F)c4)nc3)cc2s1 [6-[(E)-2-(2-{[3-fluoro-4-ylsulfonyl)phenyl]amino}pyrimidin-5-yl)vinyl]-1,3-benzothiazol-2-amine] | 94 | 100
Nc1nc2ccc(/C=C/c3cnc(Nc4ccc(S(=O)(=O)N5CCNCC5)c(N5CCNCC5)c4)nc3)cc2s1 [6-[(E)-2-(2-{[3-piperazin-1-yl-4-(piperazin-1-ylsulfonyl)phenyl]amino}pyrimidin-5-yl)vinyl]-1,3-benzothiazol-2-amine] | 152 | 318
Nc1nc2ccc(/C=C/c3cnc(Nc4ccc(CCCN5CCCC5)cc4)nc3)cc2s1 [6-[(E)-2-(2-{[4-(3-pyrrolidin-1-ylpropyl)phenyl]amino}pyrimidin-5-yl)vinyl]-1,3-benzothiazol-2-amine] | 9450 | 5150
Nc1nc2ccc(/C=C/c3cnc(Nc4ccc(S(=O)(=O)N5CCNCC5)c(C(F)(F)F)c4)nc3)cc2s1 [6-[(E)-2-(2-{[4-(piperazin-1-ylsulfonyl)-3-(trifluoromethyl)phenyl]amino)pyrimidin-5-yl)vinyl]-1,3-benzothiazol-2-amine] | 2100 | 1020
